Drawing on patent US20220396565A1 (Hoffmann-La Roche Inc., priority 2020, published 2022), this text covers IC90 for 23 compounds.

Structures can show the parent of a compound that is named as a salt.

One assay concerns Acinetobacter baumannii ATCC17978. The experiment in a line: Antimicrobial susceptibility testing: 90% growth inhibitory concentration (IC90) determination, Iso-Sensitest broth. It counts as cell-based. The following applies: 90% growth inhibitory concentration, Acinetobacter baumannii ATCC17978, Iso-Sensitest broth; read-out: ATCC 17978 IC90. The essentials: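 Growth at OD600 was monitored every 20 min for 16 h at 35±2 °C, with bacteria inoculated at ~5×10^(5) CFU/ml into Iso-Sensitest medium. Compounds were tested as 10-point twofold dilutions (e.g. 10–0.02 μM final). The 90% inhibitory concentration comes from the log-phase growth.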
For `COc1ccc(-c2cnc(C(=O)Nc3ccc(C(=O)N4CCN(C(=O)[C@@H]5C[C@H](O)CN5)CC4)c(Cl)c3)n2C)c(Cl)c1F` [Example 114, 5-(2-chloro-3-fluoro-4-methoxy-phenyl)-N-[3-chloro-4-[4-[(2S,4S)-4-hydroxypyrrolidine-2-carbonyl]piperazine-1-carbonyl]phenyl]-1-methyl-imidazole-2-carboxamide formate], the 90% effect concentration (IC90) came to 110 nM. With `COc1ccc(-c2cnc(C(=O)Nc3ccc(C(=O)N4CCN(C(=O)[C@H]5C[C@@H](O)CN5)CC4)c(Cl)c3)n2C)c(Cl)c1F` [Example 115, 5-(2-chloro-3-fluoro-4-methoxy-phenyl)-N-[3-chloro-4-[4-[(2R,4R)-4-hydroxypyrrolidine-2-carbonyl]piperazine-1-carbonyl]phenyl]-1-methyl-imidazole-2-carboxamide formate], the IC90 turned out to be 140 nM. On the same count and under the same terms, next, `COc1ccc(-c2cnc(C(=O)Nc3ccc(C(=O)N4CCC(C(=O)N5CCN[C@@H](CO)C5)CC4)c(Cl)c3)n2C)c(Cl)c1F` [Example 116, 5-(2-chloro-3-fluoro-4-methoxy-phenyl)-N-[3-chloro-4-[4-[(3R)-3-(hydroxymethyl)piperazine-1-carbonyl]piperidine-1-carbonyl]phenyl]-1-methyl-imidazole-2-carboxamide]: 130 nM. For `COc1ccc(-c2cnc(C(=O)Nc3ccc(C(=O)N4CCN(C(=O)C5CCNCC5)CC4)c(C)c3)n2C)c(Cl)c1F` [Example 117, 5-(2-chloro-3-fluoro-4-methoxy-phenyl)-1-methyl-N-[3-methyl-4-[4-(piperidine-4-carbonyl)piperazine-1-carbonyl]phenyl]imidazole-2-carboxamide formate], the IC90 is 150 nM. Same read-out and setting: next, `Cn1c(-c2ccc(OCC#N)c(F)c2F)cnc1C(=O)Nc1ccc(C(=O)N2CCN(C(=O)C3CCNCC3)CC2)c(Cl)c1` [Example 196, N-(3-chloro-4-(4-(piperidine-4-carbonyl)piperazine-1-carbonyl)phenyl)-5-(4-(cyanomethoxy)-2,3-difluorophenyl)-1-methyl 1H-imidazole-2-carboxamide formate]: 70 nM. Still for that read-out and setting: next, `Cn1c(-c2ccc(OCC#N)c(F)c2F)cnc1C(=O)Nc1ccc(C(=O)N2CCN(C(=O)[C@@H]3CCCN3)CC2)c(Cl)c1` [Example 198, (S)-N-(3-chloro-4-(4-prolylpiperazine-1-carbonyl)phenyl)-5-(4-(cyanomethoxy)-2,3-difluorophenyl)-1-methyl-1H-imidazole-2-carboxamide 2,2,2-trifluoroacetate]: 30 nM; `Cn1c(-c2ccc(OCC#N)c(F)c2F)cnc1C(=O)Nc1ccc(C(=O)N2CCN(C(=O)[C@@H]3CCNC3)CC2)c(Cl)c1` [Example 199, (R)-N-(3-chloro-4-(4-(pyrrolidine-3-carbonyl)piperazine-1-carbonyl)phenyl)-5-(4-(cyanomethoxy)-2,3-difluorophenyl)-1-methyl-1H-imidazole-2-carboxamide 2,2,2-trifluoroacetate]: 40 nM; `Cn1c(-c2ccc(OCC#N)c(F)c2F)cnc1C(=O)Nc1ccc(C(=O)N2CCN(C(=O)[C@@H]3C[C@H](O)CN3)CC2)c(Cl)c1` [Example 201, N-(3-chloro-4-(4-((2S,4S)-4-hydroxypyrrolidine-2-carbonyl)piperazine-1-carbonyl)phenyl)-5-(4-(cyanomethoxy)-2,3-difluorophenyl)-1-methyl-1H-imidazole-2-carboxamide formate]: 50 nM.

Regarding `Cn1c(-c2ccc(OCC#N)c(F)c2F)cnc1C(=O)Nc1ccc(C(=O)N2CCN(C(=O)[C@@H]3C[C@@H](O)CN3)CC2)c(Cl)c1` [Example 202, N-(3-chloro-4-(4-((2S,4R)-4-hydroxypyrrolidine-2-carbonyl)piperazine-1-carbonyl)phenyl)-5-(4-(cyanomethoxy)-2,3-difluorophenyl)-1-methyl-1H-imidazole-2-carboxamide 2,2,2-trifluoroacetate], the IC90 was determined as 90 nM. As for `Cc1cc(NC(=O)c2ncc(-c3ccc(OCC#N)c(F)c3F)n2C)ccc1C(=O)N1CCN(C(=O)[C@@H]2CCNC2)CC1` [Example 203, (R)-5-(4-(cyanomethoxy)-2,3-difluorophenyl)-1-methyl-N-(3-methyl-4-(4-(pyrrolidine-3-carbonyl)piperazine-1-carbonyl)phenyl)-1H-imidazole-2-carboxamide 2,2,2-trifluoroacetate], the IC90 turned out to be 90 nM. Still for that read-out and setting: next, `CN(C)CC(=O)N1CCN(C(=O)c2ccc(NC(=O)c3ncc(-c4ccc(OCC#N)c(F)c4F)n3C)cc2Cl)CC1` [Example 204, N-(3-chloro-4-(4-(dimethylglycyl)piperazine-1-carbonyl)phenyl)-5-(4-(cyanomethoxy)-2,3-difluorophenyl)-1-methyl-1H-imidazole-2-carboxamide formate]: 40 nM.

For the compound `CNCC(=O)N1CCN(C(=O)c2ccc(NC(=O)c3ncc(-c4ccc(OCC#N)c(F)c4F)n3C)cc2Cl)CC1` [Example 205, N-(3-chloro-4-(4-(methylglycyl)piperazine-1-carbonyl)phenyl)-5-(4-(cyanomethoxy)-2,3-difluorophenyl)-1-methyl-1H-imidazole-2-carboxamide formate], the IC90 worked out at 60 nM.

Regarding `CNCC(=O)N1CCN(C(=O)c2ccc(NC(=O)c3ncc(-c4ccc(OCC#N)c(F)c4F)n3C)cc2C)CC1` [Example 206, 5-(4-(cyanomethoxy)-2,3-difluorophenyl)-1-methyl-N-(3-methyl-4-(4-(methylglycyl)piperazine-1-carbonyl)phenyl)-1H-imidazole-2-carboxamide 2,2,2-trifluoroacetate], the 90% effect concentration (IC90) turned out to be 100 nM. Consider `Cn1c(-c2ccc(OCC#N)c(F)c2F)cnc1C(=O)Nc1ccc(C(=O)N2CCN(C(=O)C3(O)CCNCC3)CC2)c(Cl)c1` [Example 207, N-(3-chloro-4-(4-(4-hydroxypiperidine-4-carbonyl)piperazine-1-carbonyl)phenyl)-5-(4-(cyanomethoxy)-2,3-difluorophenyl)-1-methyl-1H-imidazole-2-carboxamide 2,2,2-trifluoroacetate], for which the 90% effect concentration (IC90) came out at 50 nM. On the same count and under the same terms, the same measure for `CN(C)CCN1CCN(C(=O)c2ccc(NC(=O)c3ncc(-c4ccc(OCC#N)c(F)c4Cl)n3C)cc2Cl)CC1` [Example 270, 5-[2-chloro-4-(cyanomethoxy)-3-fluoro-phenyl]-N-[3-chloro-4-[4-[2-(dimethylamino)ethyl]piperazine-1-carbonyl]phenyl]-1-methyl-imidazole-2-carboxamide]: 50 nM. For `COc1ccc(-c2cnc(C(=O)Nc3ccc(C(=O)N4CCN(CCN(C)C)CC4)c(Cl)c3)n2C)cc1F` [Example 274, N-[3-chloro-4-[4-[2-(dimethylamino)ethyl]piperazine-1-carbonyl]phenyl]-5-(3-fluoro-4-methoxy-phenyl)-1-methyl-imidazole-2-carboxamide formate], the 90% effect concentration (IC90) was 290 nM. The same measure, in the same setting: next, `CCc1cc(NC(=O)c2ncc(-c3ccc(OC(F)F)cc3)n2C)ccc1C(=O)N1CCN(CCN(C)C)CC1` [Example 275, 5-[4-(difluoromethoxy)phen-yl]-N-[4-[4-[2-(dimethylamino)ethyl]piperazine-1-carbonyl]-3-ethyl-phenyl]-1-methyl-imidazole-2-carboxamide]: 1520 nM; `CCc1cc(NC(=O)c2ncc(-c3ccc(OC(C)C)c(F)c3)n2C)ccc1C(=O)N1CCN(CCN(C)C)CC1` [Example 276, N-(4-(4-(2-(dimethylamino)ethyl)piperazine-1-carbonyl)-3-ethylphenyl)-5-(3-fluoro-4-isopropoxyphenyl)-1-methyl-1H-imidazole-2-carboxamide]: 4020 nM. The same measure, in the same setting: the same measure for `CCc1cc(NC(=O)c2ncc(-c3ccc(OC)cc3Cl)n2C)ccc1C(=O)N1CCN(CCN(C)C)CC1` [Example 277, 5-(2-chloro-4-methoxyphenyl)-N-(4-(4-(2-(dimethylamino)ethyl)piperazine-1-carbonyl)-3-ethylphenyl)-1-methyl-1H-imidazole-2-carboxamide]: 2300 nM; for `COc1ccc(-c2cnc(C(=O)Nc3ccc(C(=O)N4CCN(CCN(C)C)CC4)c(Cl)c3)n2C)c(F)c1F` [Example 278, N-[3-chloro-4-[4-[2-(dimethylamino)ethyl]piperazine-1-carbonyl]phenyl]-5-(2,3-difluoro-4-methoxy-phenyl)-1-methyl-imidazole-2-carboxamide formate]: 80 nM.

The same assay, now with this note: Acinetobacter baumannii, ATCC17978, read-out: ATCC 17978 IC90.
As to `Cn1c(-c2ccc(OCC#N)c(F)c2F)cnc1C(=O)Nc1ccc(C(=O)N2CCN(C(=O)[C@H]3CCCN3)CC2)c(Cl)c1` [Example 197, (R)-N-(3-chloro-4-(4-prolylpiperazine-1-carbonyl)phenyl)-5-(4-(cyanomethoxy)-2,3-difluorophenyl)-1-methyl 1H-imidazole-2-carboxamide 2,2,2-trifluoroacetate], the IC90 is 70 nM. Same read-out and setting: the same measure for `Cn1c(-c2ccc(OCC#N)c(F)c2F)cnc1C(=O)Nc1ccc(C(=O)N2CCN(C(=O)[C@H]3CCNC3)CC2)c(Cl)c1` [Example 200, (S)-N-(3-chloro-4-(4-(pyrrolidine-3-carbonyl)piperazine-1-carbonyl)phenyl)-5-(4-(cyanomethoxy)-2,3-difluorophenyl)-1-methyl 1H-imidazole-2-carboxamide 2,2,2-trifluoroacetate]: 50 nM. Still for that read-out and setting: the same measure for `CN(C)CCN1CCN(C(=O)c2ccc(NC(=O)c3ncc(-c4ccc(OCC#N)c(Cl)c4)n3C)cc2Cl)CC1` [Example 269, 5-[3-Chloro-4-(cyanomethoxy)phenyl]-N-[3-chloro-4-[4-[2-(dimethylamino)ethyl]piperazine-1-carbonyl]phenyl]-1-methyl-imidazole-2-carboxamide trifluoroacetate]: 70 nM.

The IC90 is the concentration needed for an effect of 90%.
